From US10646572B2, “Pharmaceutical compositions with enhanced stability” (Foresee Pharmaceuticals Co., Ltd., priority 2006, dated 2020)
Counter-ions that a name gives are not always drawn. Like-named read-outs stand apart in the source and are kept apart here.

Legend:
[1] = assay type: physicochemical
Text: (§1) The injectable compositions were filled into 1.2 mlL polypropylene syringes with luer-lock tips. […] The injectable composition was sampled at pre-defined time points.

[2] = Molecular weight of PLGA in PLGA/DMSO injectable compositions (GPC); assay type: physicochemical; conditions: DMSO, 4° C., after 16 months
Text: as §1

[3] = NMP
Procedure: Poly(DL-lactide-co-glycolide) (PLGA) of an 85/15 ratio of lactide to glycolide (DLPLG85/15, IV: 0.28) with a lauryl ester end group was dissolved in N- methyl-2-pyrrolidone (NMP) to give a 50% solution by weight. The leuprolide salts were mixed with the PLGA solution in NMP to give a uniform injectable composition at ratios shown in the Table 1. The injectable compositions were filled into 1.2 mL polypropylene syringes with luer-lock tips. Then the pre-filled syringes were sealed using luer-lock caps. The capped syringes were packaged in a container and sealed in a plastic bag under vacuum and then stored at 4° C. and room temperature (˜22° C.) for up to 18 months. The injectable composition was sampled at 24 h, 1, 2, 3, 6, 12, and 18 month time points. […] Molecular weight of the polymer was determined by gel permeation chromatography (GPC) using polystyrene standards with known molecular weights.

[4] = In vitro release of leuprolide from injectable polymeric formulations (Example 10); assay type: physicochemical; conditions: 6% by weight in PLGA/NMP, PBS pH 7.4, 37° C., FIG. 3
Procedure: Three polymer vehicle solutions were prepared as following: PLG 85/15 (0.28 IV) with a lauryl ester end group was dissolved in NMP at 50% and 55% by weight, and RG503 (0.42 IV) with a carboxylic acid end group was dissolved in NMP at 50% by weight. Then suitable amount of leuprolide hydrochloride (LAHCl) and leuprolide mesylate (LAMS) were mixed with the polymer solutions at 6% by weight each. The formulations were thoroughly mixed to obtain uniform formulations.
(§2) An aliquot of the formulation suspension (about 100 mg) was injected into in 3 mL phosphate buffer saline solution at pH 7.4 with 0.1% sodium azide at 37° C. The receiving fluid was replaced at selected time points with fresh buffer solution, and the removed buffer solution diluted 2-fold with phosphate buffer at pH 7.4 was analyzed for drug concentration by HPLC. The amount released at each time point was calculated.

in vivo = assay: in vivo; parameters: species or system rats; conditions: rat, sc
Procedure: Each formulation was then injected into the rats subcutaneously at a volume of about 100 μL with 6 animals per group. The serum samples were collected from each animal at 3 hour, 1, 3, 7, 14, 28, 42, 56, and 70 days post injection. The serum samples were analyzed for leuprolide concentration by ELISA using the kits available from Peninsula Laboratories Inc. The leuprolide remaining in the implants at various times was analyzed by HPLC.

[5] = cited from earlier work
[6] = Effect of Vitamin E TPGS on in vitro release of leuprolide (Example 11); assay type: physicochemical; conditions: LAHCl 15% in PLA 100DLPL/NMP, PBS pH 7.4, 37° C., FIG. 4
Procedure: The polymer vehicle solutions with and without excipients were prepared as following: PLA 100DLPL (0.26 IV, Lakeshore, Ala.) with a lauryl ester end group and Vitamin E TPGS were dissolved in NMP at suitable amount according to the Table 7. Then suitable amount of leuprolide hydrochloride (LAHCl) was mixed with the polymer solutions at 15% by weight. The formulations were thoroughly mixed to obtain uniform formulations.
as §2, with “diluted 10-fold” for “diluted 2-fold”, “with PBS” for “with phosphate buffer”

For CCNC(=O)[C@@H]1CCCN1C(=O)[C@H](CCCNC(=N)N)NC(=O)[C@H](CC(C)C)NC(=O)[C@@H](CC(C)C)NC(=O)[C@H](Cc1ccc(O)cc1)NC(=O)[C@H](CO)NC(=O)[C@H](Cc1c[nH]c2ccccc12)NC(=O)[C@H](Cc1c[nH]cn1)NC(=O)[C@@H]1CCC(=O)N1 [leuprolide acetate, Leuprolide acetate, reference compound], the leuprolide degraded [1] was “Up to 20%”, the “decrease of molecular weight of PLGA comparing to blank control” value [2] was “about 40%” and the “decrease of molecular weight of PLGA comparing to blank control” value ([3]; 4° C., after 6 months) was “more than 10%”.

For CCNC(=O)[C@@H]1CCCN1C(=O)[C@H](CCCNC(=N)N)NC(=O)[C@H](CC(C)C)NC(=O)[C@@H](CC(C)C)NC(=O)[C@H](Cc1ccc(O)cc1)NC(=O)[C@H](CO)NC(=O)[C@H](Cc1c[nH]c2ccccc12)NC(=O)[C@H](Cc1c[nH]cn1)NC(=O)[C@@H]1CCC(=O)N1 [leuprolide hydrochloride, Leuprolide Hydrochloride], the leuprolide degraded [1] was “less than 5%”, the “molecular weight of PLGA versus control” value [2] was “comparable to that of the control” and the “leuprolide release, LAHCl versus LAMS” value [4] was “no significant difference”. The “time at which Cmax was reached” value (in vivo) was 3 h, the Cmax (in vivo; Cmax (serum leuprolide)) was 662 ng/mL and the “molecular weight of PLGA versus blank control” value ([3]; both 4° C. and RT, after 12 months) was “the same as that of the blank control”.

For CCNC(=O)[C@@H]1CCCN1C(=O)[C@H](CCCNC(=N)N)NC(=O)[C@H](CC(C)C)NC(=O)[C@@H](CC(C)C)NC(=O)[C@H](Cc1ccc(O)cc1)NC(=O)[C@H](CO)NC(=O)[C@H](Cc1c[nH]c2ccccc12)NC(=O)[C@H](Cc1c[nH]cn1)NC(=O)[C@@H]1CCC(=O)N1 [leuprolide mesylate, Leuprolide Mesylate], the leuprolide degraded [1] was “less than 5%”, the “Cmax (serum leuprolide)” value (in vivo) was 370.6 ng/mL and the “time at which Cmax was reached” value (in vivo) was 3 h.

In the case of C[C@@H](O)[C@@H]1NC(=O)[C@H](CCCCN)NC(=O)[C@@H](Cc2c[nH]c3ccccc23)NC(=O)[C@H](Cc2ccccc2)NC(=O)[C@@H](NC(=O)[C@H](N)Cc2ccccc2)CSSC[C@@H](C(=O)N[C@H](CO)[C@@H](C)O)NC1=O [octreotide acetate], the octreotide acylated ([5]; combined with polylactide-co-glicolide solution in NMP, within 5 hours) is given as “more than 40%” and the “molecular weight of the polymer” value ([5]; polylactide-co-glicolide solution in NMP, within the same time period (5 hours)) is given as “decreased significantly”.

In the case of Vitamin E TPGS, the “effect on initial burst” value [6] is reported as “did not affect the initial burst” and the “effect on release rate of leuprolide at later stages” value [6] is reported as “seemed to reduce the release rate of leuprolide at later stages”.
